# From PMC12538432 (The Journal of Biological Chemistry, 2025)
# Columns and labels:
# WT CYP3A4 = molecular target: T1, WT CYP3A4 (Homo sapiens, UniProt P08684); assay: Equilibrium spectral binding titration of WT CYP3A4; details: for Spectral ligand type: WT CYP3A4, Soret band shift; for Spectral changes / low-to-high spin transition induced: WT CYP3A4, saturating ligand
# T1 construct: made in house
# Procedure: (§1) Fitting was performed using SigmaPlot software (Grafiti LLC).
# CYP3A4 S119A = CYP3A4 S119A (Homo sapiens, UniProt P08684, S119A); assay: biochemical
# CYP3A4 S119A, sequence (P08684 with tags, fused parts or gaps S119A): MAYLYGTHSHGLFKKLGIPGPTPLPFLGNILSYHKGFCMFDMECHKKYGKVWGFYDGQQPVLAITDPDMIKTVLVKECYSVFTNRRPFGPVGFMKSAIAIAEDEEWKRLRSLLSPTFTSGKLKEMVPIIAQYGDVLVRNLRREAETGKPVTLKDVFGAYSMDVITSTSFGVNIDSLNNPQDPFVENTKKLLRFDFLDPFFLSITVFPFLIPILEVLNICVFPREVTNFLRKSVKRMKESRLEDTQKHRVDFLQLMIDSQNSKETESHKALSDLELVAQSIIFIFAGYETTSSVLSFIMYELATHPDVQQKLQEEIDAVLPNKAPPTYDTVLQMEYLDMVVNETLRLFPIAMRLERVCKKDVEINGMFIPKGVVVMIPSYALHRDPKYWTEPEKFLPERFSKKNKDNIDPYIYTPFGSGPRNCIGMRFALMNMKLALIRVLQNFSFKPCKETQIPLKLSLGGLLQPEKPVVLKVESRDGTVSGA
# Procedure: Equilibrium titrations of CYP3A4 were conducted in a Cary 300 spectrophotometer at an ambient temperature in 0.1 M phosphate, pH 7.4, containing 20% glycerol and 1 mM dithiothreitol (buffer A). […] Spectral dissociation constants (Kd) were determined from fittings to the plots of the maximal absorbance change (peak-to-trough separations in the difference spectra; ΔA) versus ligand concentration. Fitting was performed using SigmaPlot software (Grafiti LLC). Equation used for one-site ligand binding: Y=X/(Kd+X) where Y represents the fraction of the occupied site, X is the total ligand concentration, and Kd is the equilibrium dissociation constant. Equation used for two-site ligand binding: Y=(Amax1·X/(Kd1+X))+(Amax2·X/(Kd2+X)) where Y is total specific binding, X is the total ligand concentration, Amax1 and Amax2 are maximum absorbance changes due to specific binding to the high- and low-affinity sites, and Kd1 and Kd2 are the dissociation constants for the high- and low-affinity sites, respectively.
# CYP3A4 R212A = molecular target: T2, CYP3A4 R212A (Homo sapiens, UniProt P08684, R212A); assay: Equilibrium spectral binding titration of CYP3A4 R212A mutant
# T2 construct: made in house
# T2 sequence (P08684 with tags, fused parts or gaps R212A): as the sequence (P08684 with tags, fused parts or gaps S119A) above, with A99S, R192A counted along it
# Procedure: as §1
# [1] = upon intravenous and immediate-release oral administration ref 32; cited from earlier work
# CYP3A4 (wild type) = molecular target: T3, CYP3A4 (wild type) (Homo sapiens, UniProt P08684); assay: Equilibrium spectral binding titration of WT CYP3A4; details: human, recombinant Δ3-22 truncated wild-type CYP3A4 protein, pH 7.4; WT CYP3A4, second of two binding sites; read-out: Kd2 (two-site binding fitting)
# T3 construct: made in house
# T3 sequence (P08684 with tags, fused parts or gaps): as the sequence (P08684 with tags, fused parts or gaps S119A) above, with A99S counted along it
# Procedure: as §1
# T1 sequence (P08684 with tags, fused parts or gaps): as the sequence (P08684 with tags, fused parts or gaps S119A) above, with A99S counted along it
SMILES,Spectral ligand type (WT CYP3A4),Spectral ligand type (WT CYP3A4; listed as cannabidiol),Spectral changes / low-to-high spin transition induced (WT CYP3A4),Spectral changes / low-to-high spin transition induced (WT CYP3A4; listed as cannabinol),Kd (CYP3A4 S119A),Kd (CYP3A4 R212A),Kd (WT CYP3A4),half-life [1],Kd (CYP3A4 (wild type)),"Observed absorbance change during association to the high-affinity site (WT CYP3A4; WT CYP3A4, share of total absorbance change)"
"C=C(C)[C@@H]1CCC(C)=C[C@H]1c1c(O)cc(CCCCC)cc1O [CBD, cannabidiol]",type I spectral changes,type I ligands,nearly complete high-spin transition,–,–,–,–,–,–,–
"CCCCCc1cc(O)c2c(c1)OC(C)(C)c1ccc(C)cc1-2 [CBN, cannabinol]",–,–,only minor spectral changes,only negligible spectral changes,–,–,–,–,–,–
"CCCCCc1cc(O)c2c(c1)OC(C)(C)[C@@H]1CCC(C)=C[C@@H]21 [THC, (−)-trans-Δ^9-tetrahydrocannabinol]",type I ligand,–,nearly complete low-to-high spin transition,–,3000 ± 300 nM,2800 ± 300 nM,1900 nM,–,–,–
NC(=O)C(c1ccccc1)(c1ccccc1)[C@@H]1CCN(CCc2ccc3c(c2)CCO3)C1 [darifenacin],type I ligand,–,–,–,–,–,–,3 to 4 h,712000 nM,~70%
